Laboratory results from patent US7498403B2, “Peptides capable of binding to titanium silver silicone” (Japan Science and Technology Agency, priority 2003, dated 2009).

Assays:
[1] = Binding ability of phage clones to silicon particles; settings: peptide expressed on phage clone
Procedure: (§1) By using the phage clone obtained in Example 1, the binding ability to titanium was evaluated by the following experiment. The same method as for panning operation shown in Example 1 was performed. The difference between Example 1 is that the stirring time of titanium and phage clone was 1 hour; the Tween 20 concentration and BSA concentration in each solution was 0.5%, and 1%, respectively, and that the titer of the phage added was 10^9 pfu for clone from D12, and 10^11 pfu for clone from C7C.
(§2) To investigate the binding specificity of phage clone expressing a peptide comprising an amino acid sequence shown in SEQ ID NO: 3 to metal material, to 10 mg each of gold (purity>99.9%, particle diameter<150 μm)/silver (purity>99.9%, particle diameter<75 μm)/copper (purity>99%, particle diameter 75-150 μm)/platinum (purity>99.9%, particle diameter<75 μm)/iron (purity>99.9%, particle diameter<150 μm)/tin (purity>99.9%, particle diameter<150 μm)/zinc (purity>99.9%, particle diameter<150 μm)/chrome (purity>98%, particle diameter>10 μm)/cobalt (purity>99%, particle diameter<75 μm)/silicon (purity>99%, particle diameter<150 μm) (Kojundo Chemical Lab., Saitama), the binding ability to each metal was examined by the same method of Example 2, by using 10^10 pfu/ml of phage clone expressing a peptide comprising an amino acid sequence shown in SEQ ID NO: 3.
(§3) In order to confirm whether the binding form to silver or silicone, and the sequence specificity of the phage clone expressing a peptide comprising an amino acid sequence shown in SEQ ID NO: 3 is similar as in the case of binding to titanium, the binding ability of the alanine substituted-mutant phage of SEQ ID NOs: 4, 5, 7, 8 used in Example 4 to silver/silicon was examined by the method shown in Example 2.

[2] = Binding ability of phage clones to silver particles; settings: peptide expressed on phage clone
Procedure: as §1, §2, §3

[3] = Binding ability of phage clones to titanium particles (eluted phage titer / added phage titer); settings: peptide expressed on phage clone; for binding ability to titanium: titanium particles, mutants compared with SEQ ID NO: 3 clone
Procedure: 10 mg of titanium particle with a particle diameter of […] (Sumitomo Titanium Corporation, Hyogo) was put into a 1.5 ml-Eppendorf tube, and washed twice with a solution of 500 μl of 50 mM tris (hydroxymethyl) aminomethane (herein after referred to as tris (Kishida Chemical (Osaka)) HCl buffer pH 7.5; 150 mM of sodium chloride (Wako Pure Chemicals, Osaka) solution (herein after referred to as TBS) supplemented with 0.1% bovine serum albumin (herein after referred to as BSA), 0.1% Polyoxyethylenesorbitan monolaurate (herein after referred as Tween-20 (Sigma, St. Louis)). Washing of titanium particles was performed by centrifuging with a desktop centrifuge H1300 (Kokusan) at 13,000 rpm, 5 sec, to precipitate titanium particles and to remove supernatant. After washing, in order to block the non-specific adsorption of the phage, the mixture was stirred by rotating with 1 ml of the same solution for 30 min at room temperature by using a rotary shaker rotator RT-50 (Taitec).
By centrifuging with a desktop centrifuge H1300 (Kokusan) at 13,000 rpm, 5 sec, titanium particles were precipitated, the supernatant was removed, and then 1 ml TBS containing peptide-expressing phage library, D12 library expressing linear random peptide of 12 residues (New England Biolabs, Beverly), 17×10^11 plaque-forming unit (herein after referred to as pfu), or C7C library expressing cyclic randam peptide of 7 residues (New Engand Biolabs) 2.0×10^11 pfu, 0.1% BSA and 0.1% Tween-20 solution were added, and stirred by rotating for 2 hours, at room temperature with a rotary shaker, rotator RT-50.
By centrifuging with a desktop centrifuge H1300 (Kokusan) at 13,000 rpm, 5 sec, the supernatant was removed, and the resultant was washed 10 times with 1 ml of TBS, 0.1% Tween-20 solution. Washing was performed by centrifuging at 8000×g, 5 sec, by precipitating titanium particles. After removing washing solution, 1 ml of 0.2 M glycine (Wako Pure Chemicals), HCl buffer pH 2.2 were added and stirred by rotating for 10 min at room temperature with rotator RT-50 (Taitec) to elute phage bound to titanium. Titanium was precipitated by centrifugation, and the supernatant was moved to a separate 1.5 ml-Eppendorf tube. Then, 150 μl of 1M tris/HCl buffer pH 9.1 was added to neutralize, and phage titer in the solution (plaque forming ability per unit solution) was measured according to a common procedure (Molecular Cloning Third Edition, Cold Spring Harbor Laboratory Press).
as §1
For clone strongly bound particularly with titanium (SEQ ID NO: 3) in Example 2, point mutants substituted by alanine having only one methyl group in the side chain was prepared and the change of binding ability to titanium was examined for each mutant phage. As point mutant comprises alanine in the 6th position in the expressed sequence, mutants were prepared for all the residues except the 6th residue. The preparation of point mutants was performed by Kunkel method (Molecular Cloning Third Edition, Cold Spring Harbor Laboratory Press). Synthetic DNAs used for preparing point mutants are shown in FIG. 8 (SEQ ID NOs: 40 to 50). The introduction of point mutation was confirmed by determining the DNA sequence of phage DNA. DNA sequencing was performed in the same manner as Example 1. The binding ability to titanium of the obtained point mutants was measured by the method shown in Example 2, by adjusting the phage amount added to 10^10 pfu.
The deletion mutants were prepared by the method shown schematically in FIG. 10. […]

[4] = Adsorption of synthetic peptide to silicon particles, Langmuir adsorption isotherm fitting; type: binding; settings: Si
Procedure: (§4) In order to confirm whether the synthetic peptide comprising an amino acid sequence shown in SEQ ID NO: 3 binds to titanium surface, the binding ability of the synthetic peptides comprising an amino acid sequence shown in SEQ ID NO: 3 to titanium particles was examined. 10 mg of titanium particles used in Example 1 was put into an Eppendorf tube, washed twice with 50 mM HEPES-NaOH, 150 mM NaCl. Then, 100 μl of 5 to 40 μM of the synthetic peptides of SEQ ID NO: 3, and the mixture was stirred by rotating by using a rotary shaker rotator RT-50 (Taitec) at room temperature for 2 hours. By centrifuging with a desk-top centrifuge H-1300 (Kokusan, Tokyo), at 13,000 rpm, for 5 sec., the supernatant was removed, mixed with fluoro aldehyde (Pias Rockford, Ill.), and by using a spectrofluorometer (Nippon Bunko, Tokyo), at excitation wave length 342 nm, fluorescent wave length 437 nm, the binding level to titanium was calculated from the peptide concentration of the supernatant. The relative surface area of titanium was calculated from the density and mean particle diameter. Further, the binding ability of the synthetic peptide comprising an amino acid sequence shown in SEQ ID NO: 2 to silicone/tin used in Example 13 was examined by the same method. […]

[5] = QCM-D300 quartz crystal microbalance analysis of phage binding to titanium sensor; settings: phage clone; frequency and dissipation (viscoelasticity), sensor blocked with BSA
Procedure: As for the clone strongly bound particularly with titanium (expressing peptide of SEQ ID NO: 3), the binding form of titanium surface and phage was examined, by measuring with QCM-D300 (Q-sense AB, Goeteborg), which is a device for quantification of interaction with a quartz crystal microbalance.
For a quartz crystal microbalance, titanium sensor being a genuine part of QCM-D300 was used. The temperature was fixed at 24.99° C., and the actual measurement value was from around 24.68° C. to 24.70° C. It was measured in a condition of blocking the sensor with BSA, and in a condition without blocking. When blocking with BSA is not performed, after measuring the standard value with TBS, the phage solution adjusted so that the phage titer becomes 10^10 pfu/ml was measured continuously. When blocking with BSA is performed, after measuring the standard value with TBS, blocking was conducted by incubating for about 10 min with TBS, 0.1% BSA, and after washing again migrated BSA with TBS, the phage solution adjusted so that the phage titer becomes 10^11 pfu/ml was measured continuously.
From the results shown in FIG. 6, it is clear that the phage clone is bound to the sensor from the change of frequency, under the absence of BSA. […]

[6] = Binding ability of phage clone to copper particles; settings: peptide expressed on phage clone
Procedure: as §1, §2

[7] = Adsorption of synthetic peptide to titanium particles, Langmuir adsorption isotherm fitting; type: binding; settings: Ti
Procedure: as §4

[8] = Binding ability of phage clone to iron particles; settings: peptide expressed on phage clone
Procedure: as §1, §2

| Substance | binding ability to silicon [1] | binding ability to silver [2] | binding ability to titanium [3] | other results |
| --- | --- | --- | --- | --- |
| SEQ ID NO: 5: e3-2-3 mutant, 2nd amino acid residue substituted by Ala (RALPDAPGMHTW) | same trend as for titanium | same trend as for titanium | increased |  |
| SEQ ID NO: 15: Ala is added/inserted to N terminal of e-3-2-3 (ARKLPDAPGMHTW) |  |  | increase of the binding ability |  |
| RALPDA [SEQ ID NO: 2] | binds | binds | binds | qm (maximum adsorption level) [4]: 2.1 ± 0.3 × 10^−7 mole/m^2; Kd ([4]; read-out: Kd (dissociation constant)): 13.2 ± 4 µM |
| SEQ ID NO: 7: e3-2-3 mutant, 4th amino acid residue substituted by Ala (RKLADAPGMHTW) | same trend as for titanium | same trend as for titanium | the most significantly impaired |  |
| RKLPDAPGMHTW [SEQ ID NO: 3, tested on phage clone and as synthetic peptide] |  |  | much higher | binding ability to titanium treated with hydrogen peroxide ([3]; titanium particles treated with 3% hydrogen peroxide for 1 hour): increased; binding form of phage to titanium surface [5]: bound perpendicularly to titanium surface; binding to copper [6]: below the detection limit; Kd ([7]; synthetic peptide 5 to 40 μM, 50 mM HEPES-NaOH, 150 mM NaCl, room temperature, 2 hours, read-out: Kd (dissociation constant)): 11.1 ± 2.8 µM; qm (maximum adsorption level) ([7]; synthetic peptide, Langmuir fitting): 2.5 ± 0.3 × 10^−6 mole/m^2; binding to iron [8]: below the detection limit |
| SEQ ID NO: 4: e3-2-3 mutant, 1st amino acid residue substituted by Ala (AKLPDAPGMHTW) | same trend as for titanium | same trend as for titanium | significantly impaired |  |
| SEQ ID NO: 8: e3-2-3 mutant, 5th amino acid residue substituted by Ala (RKLPAAPGMHTW) | same trend as for titanium | same trend as for titanium | significantly impaired |  |
| RKLPDA [SEQ ID NO: 1] |  |  | not affected by the deletion |  |
